Reference: the supplement of paper PMC10307832

How the values were obtained:
Test in all cases: relative viability (nuclei count vs DMSO), 5 days (fraction); higher = more cells survive
[1] = tested on: NCI-H1944
In short: (§1)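 Relative viability divides the nuclei count in treated wells by that in vehicle wells. Lung cancer cell lines were seeded in 1536-well plates, dosed by pin tool the next day, and fixed and stained after 5 days in one step with final 0.05% Triton X-100, 1% formaldehyde and 1 ug/ml Hoechst. Dosing was a single drug or a fixed anchor-drug dose plus five library-drug doses (not always all listed) in √10 steps, and values are medians of duplicate plates imaged at 4×.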

[2] = tested on: NCI-H2170
In short: as §1

[3] = tested on: NCI-H1793
In short: as §1

[4] = tested on: LXF-289
In short: as §1

[5] = tested on: NCI-H1666
In short: as §1

[6] = tested on: HCC-366
In short: as §1

[7] = tested on: A-427
In short: as §1

[8] = tested on: LC-2-ad
In short: as §1

[9] = tested on: LU99A
In short: as §1

[10] = tested on: NCI-H1915
In short: as §1

[11] = tested on: NCI-H358
In short: as §1

[12] = tested on: EPLC-272H
In short: as §1

[13] = tested on: NCI-H460
In short: as §1

[14] = tested on: HCC-78
In short: as §1

[15] = tested on: HOP-62
In short: as §1

[16] = tested on: SW 900
In short: as §1

[17] = tested on: NCI-H1792
In short: as §1

[18] = tested on: NCI-H2085
In short: as §1

With `COc1nc(C)cnc1NS(=O)(=O)c1cccnc1-c1ccc(-c2nnco2)cc1` [Zibotentan] + NC(=O)Nc1cc(-c2cccc(F)c2)sc1C(=O)N[C@H]1CCCNC1 [AZD7762] (partner 0.2 µM) the relative viability ([1]; first compound 0.08 µM) was 0.561, the relative viability ([1]; first compound 0.253 µM) was 0.487 and the relative viability ([1]; first compound 0.8 µM) was 0.249. The relative viability ([1]; first compound 2.53 µM) was 0.548, the relative viability ([2]; first compound 0.08 µM) was 0.979 and the relative viability ([2]; first compound 0.253 µM) was 0.881. For the same molecule, the relative viability ([2]; first compound 0.8 µM) was 0.675, the relative viability ([2]; first compound 2.53 µM) was 0.881 and the relative viability ([3]; first compound 0.08 µM) was 0.658. The relative viability ([3]; first compound 0.253 µM) was 0.341, the relative viability ([3]; first compound 0.8 µM) was 0.37 and the relative viability ([3]; first compound 2.53 µM) was 0.495. For the same molecule, the relative viability ([4]; first compound 0.08 µM) was 1.07, the relative viability ([4]; first compound 0.253 µM) was 1.05 and the relative viability ([4]; first compound 0.8 µM) was 1.06. It also gave a relative viability ([4]; first compound 2.53 µM) of 1.08, a relative viability ([5]; first compound 0.08 µM) of 0.866 and a relative viability ([5]; first compound 0.253 µM) of 0.795. The relative viability ([5]; first compound 0.8 µM) was 0.898, the relative viability ([5]; first compound 2.53 µM) was 0.791 and the relative viability ([6]; first compound 0.08 µM) was 0.28. The relative viability ([6]; first compound 0.253 µM) was 0.208, the relative viability ([6]; first compound 0.8 µM) was 0.103 and the relative viability ([6]; first compound 2.53 µM) was 0.343. For the same molecule, the relative viability ([7]; first compound 0.08 µM) was 0.905, the relative viability ([7]; first compound 0.253 µM) was 0.666 and the relative viability ([7]; first compound 0.8 µM) was 0.655. It also gave a relative viability ([7]; first compound 2.53 µM) of 0.834, a relative viability ([8]; first compound 0.08 µM) of 0.785 and a relative viability ([8]; first compound 0.253 µM) of 0.781. It also gave a relative viability ([8]; first compound 0.8 µM) of 0.791, a relative viability ([8]; first compound 2.53 µM) of 0.905 and a relative viability ([9]; first compound 0.08 µM) of 0.425. For the same molecule, the relative viability ([9]; first compound 0.253 µM) was 0.412, the relative viability ([9]; first compound 0.8 µM) was 0.228 and the relative viability ([9]; first compound 2.53 µM) was 0.429. For the same molecule, the relative viability ([10]; first compound 0.08 µM) was 0.836, the relative viability ([10]; first compound 0.253 µM) was 0.649 and the relative viability ([10]; first compound 0.8 µM) was 0.597. It also gave a relative viability ([10]; first compound 2.53 µM) of 0.683, a relative viability ([11]; first compound 0.08 µM) of 0.48 and a relative viability ([11]; first compound 0.253 µM) of 0.405. For the same molecule, the relative viability ([11]; first compound 0.8 µM) was 0.383, the relative viability ([11]; first compound 2.53 µM) was 0.667 and the relative viability ([12]; first compound 0.08 µM) was 0.217. For the same molecule, the relative viability ([12]; first compound 0.253 µM) was 0.261, the relative viability ([12]; first compound 0.8 µM) was 0.168 and the relative viability ([12]; first compound 2.53 µM) was 0.259. For the same molecule, the relative viability ([13]; first compound 0.08 µM) was 0.784, the relative viability ([13]; first compound 0.253 µM) was 0.539 and the relative viability ([13]; first compound 0.8 µM) was 0.251. For the same molecule, the relative viability ([13]; first compound 2.53 µM) was 0.749, the relative viability ([14]; first compound 0.08 µM) was 0.712 and the relative viability ([14]; first compound 0.253 µM) was 0.475. For the same molecule, the relative viability ([14]; first compound 0.8 µM) was 0.664, the relative viability ([14]; first compound 2.53 µM) was 0.474 and the relative viability ([15]; first compound 0.08 µM) was 0.593. The relative viability ([15]; first compound 0.253 µM) was 0.63, the relative viability ([15]; first compound 0.8 µM) was 0.479 and the relative viability ([15]; first compound 2.53 µM) was 0.615. The relative viability ([16]; first compound 0.08 µM) was 0.68, the relative viability ([16]; first compound 0.253 µM) was 0.561 and the relative viability ([16]; first compound 0.8 µM) was 0.495. For the same molecule, the relative viability ([16]; first compound 2.53 µM) was 0.725, the relative viability ([17]; first compound 0.08 µM) was 0.899 and the relative viability ([17]; first compound 0.253 µM) was 0.604. It also gave a relative viability ([17]; first compound 0.8 µM) of 0.373, a relative viability ([17]; first compound 2.53 µM) of 0.822 and a relative viability ([18]; first compound 0.08 µM) of 1.06. For the same molecule, the relative viability ([18]; first compound 0.253 µM) was 0.953, the relative viability ([18]; first compound 0.8 µM) was 0.826 and the relative viability ([18]; first compound 2.53 µM) was 0.959.

`O=c1cc(-c2cccc3c2Sc2ccccc2S3)oc(N2CCOCC2)c1` + NC(=O)Nc1cc(-c2cccc(F)c2)sc1C(=O)N[C@H]1CCCNC1 [AZD7762] (partner 0.2 µM) gave a relative viability ([1]; first compound 0.08 µM) of 0.54, a relative viability ([1]; first compound 0.253 µM) of 0.456 and a relative viability ([1]; first compound 0.8 µM) of 0.48. It also gave a relative viability ([1]; first compound 2.53 µM) of 0.55, a relative viability ([1]; first compound 8 µM) of 0.51 and a relative viability ([2]; first compound 0.08 µM) of 0.842. The relative viability ([2]; first compound 0.253 µM) was 0.868, the relative viability ([2]; first compound 0.8 µM) was 0.996 and the relative viability ([2]; first compound 2.53 µM) was 0.792. For the same molecule, the relative viability ([2]; first compound 8 µM) was 0.804, the relative viability ([3]; first compound 0.08 µM) was 0.299 and the relative viability ([3]; first compound 0.253 µM) was 0.48. It also gave a relative viability ([3]; first compound 0.8 µM) of 0.458, a relative viability ([3]; first compound 2.53 µM) of 0.182 and a relative viability ([3]; first compound 8 µM) of 0.377. The relative viability ([4]; first compound 0.08 µM) was 1.11, the relative viability ([4]; first compound 0.253 µM) was 1.18 and the relative viability ([4]; first compound 0.8 µM) was 1.15. It also gave a relative viability ([4]; first compound 2.53 µM) of 1.09, a relative viability ([4]; first compound 8 µM) of 1.12 and a relative viability ([5]; first compound 0.08 µM) of 0.76. It also gave a relative viability ([5]; first compound 0.253 µM) of 0.928, a relative viability ([5]; first compound 0.8 µM) of 0.781 and a relative viability ([5]; first compound 2.53 µM) of 0.773. For the same molecule, the relative viability ([5]; first compound 8 µM) was 0.85, the relative viability ([6]; first compound 0.08 µM) was 0.258 and the relative viability ([6]; first compound 0.253 µM) was 0.32. It also gave a relative viability ([6]; first compound 0.8 µM) of 0.302, a relative viability ([6]; first compound 2.53 µM) of 0.118 and a relative viability ([6]; first compound 8 µM) of 0.222. The relative viability ([7]; first compound 0.08 µM) was 0.715, the relative viability ([7]; first compound 0.253 µM) was 0.842 and the relative viability ([7]; first compound 0.8 µM) was 0.791. The relative viability ([7]; first compound 2.53 µM) was 0.41, the relative viability ([7]; first compound 8 µM) was 0.616 and the relative viability ([8]; first compound 0.08 µM) was 0.805. The relative viability ([8]; first compound 0.253 µM) was 0.944, the relative viability ([8]; first compound 0.8 µM) was 0.853 and the relative viability ([8]; first compound 2.53 µM) was 0.741. For the same molecule, the relative viability ([8]; first compound 8 µM) was 0.797, the relative viability ([9]; first compound 0.08 µM) was 0.28 and the relative viability ([9]; first compound 0.253 µM) was 0.349. The relative viability ([9]; first compound 0.8 µM) was 0.38, the relative viability ([9]; first compound 2.53 µM) was 0.309 and the relative viability ([9]; first compound 8 µM) was 0.456. It also gave a relative viability ([10]; first compound 0.08 µM) of 0.716, a relative viability ([10]; first compound 0.253 µM) of 0.761 and a relative viability ([10]; first compound 0.8 µM) of 0.795. For the same molecule, the relative viability ([10]; first compound 2.53 µM) was 0.681, the relative viability ([10]; first compound 8 µM) was 0.716 and the relative viability ([11]; first compound 0.08 µM) was 0.456. It also gave a relative viability ([11]; first compound 0.253 µM) of 0.581, a relative viability ([11]; first compound 0.8 µM) of 0.523 and a relative viability ([11]; first compound 2.53 µM) of 0.501. For the same molecule, the relative viability ([11]; first compound 8 µM) was 0.534, the relative viability ([12]; first compound 0.08 µM) was 0.19 and the relative viability ([12]; first compound 0.253 µM) was 0.242. The relative viability ([12]; first compound 0.8 µM) was 0.22, the relative viability ([12]; first compound 2.53 µM) was 0.24 and the relative viability ([12]; first compound 8 µM) was 0.248. For the same molecule, the relative viability ([13]; first compound 0.08 µM) was 0.742, the relative viability ([13]; first compound 0.253 µM) was 0.695 and the relative viability ([13]; first compound 0.8 µM) was 0.669. The relative viability ([13]; first compound 2.53 µM) was 0.431, the relative viability ([13]; first compound 8 µM) was 0.685 and the relative viability ([14]; first compound 0.08 µM) was 0.624. The relative viability ([14]; first compound 0.253 µM) was 0.643, the relative viability ([14]; first compound 0.8 µM) was 0.472 and the relative viability ([14]; first compound 2.53 µM) was 0.614. The relative viability ([14]; first compound 8 µM) was 0.655, the relative viability ([15]; first compound 0.08 µM) was 0.477 and the relative viability ([15]; first compound 0.253 µM) was 0.61. It also gave a relative viability ([15]; first compound 0.8 µM) of 0.869, a relative viability ([15]; first compound 2.53 µM) of 0.493 and a relative viability ([15]; first compound 8 µM) of 0.944. The relative viability ([16]; first compound 0.253 µM) was 0.862, the relative viability ([16]; first compound 0.8 µM) was 0.719 and the relative viability ([16]; first compound 2.53 µM) was 0.525. It also gave a relative viability ([16]; first compound 8 µM) of 0.418, a relative viability ([17]; first compound 0.08 µM) of 0.541 and a relative viability ([17]; first compound 0.253 µM) of 0.632. The relative viability ([17]; first compound 0.8 µM) was 0.549, the relative viability ([17]; first compound 2.53 µM) was 0.55 and the relative viability ([17]; first compound 8 µM) was 0.583. It also gave a relative viability ([18]; first compound 0.08 µM) of 1.01, a relative viability ([18]; first compound 0.253 µM) of 1.17 and a relative viability ([18]; first compound 0.8 µM) of 1.02. The relative viability ([18]; first compound 2.53 µM) was 0.836 and the relative viability ([18]; first compound 8 µM) was 0.614.
